For one data set, the target named is NaV1.6 (Homo sapiens (Human), UniProt Q9UQD0). Nature of the data set: Sodium Influx Assay (Flux), NaV1.6.
The next data set concerns the target NaV1.1 (Homo sapiens (Human), UniProt P35498). Briefly: Sodium Influx Assay (Flux), NaV1.1. In kind it is cell-based. The note with it: Trex HEK293 cells, ANG2 dye; arithmetic mean.
For a further data set, the target named is NaV1.5 (Homo sapiens (Human), UniProt Q14524). Briefly: Sodium Influx Assay (Flux), NaV1.5. The note with it: read-out: Flux NaV1.5 IC50; Trex HEK293 cells, ANG2 dye; arithmetic mean.
NaV1.5, sequence (Q14524 other isoform, or with tags, fused parts or gaps): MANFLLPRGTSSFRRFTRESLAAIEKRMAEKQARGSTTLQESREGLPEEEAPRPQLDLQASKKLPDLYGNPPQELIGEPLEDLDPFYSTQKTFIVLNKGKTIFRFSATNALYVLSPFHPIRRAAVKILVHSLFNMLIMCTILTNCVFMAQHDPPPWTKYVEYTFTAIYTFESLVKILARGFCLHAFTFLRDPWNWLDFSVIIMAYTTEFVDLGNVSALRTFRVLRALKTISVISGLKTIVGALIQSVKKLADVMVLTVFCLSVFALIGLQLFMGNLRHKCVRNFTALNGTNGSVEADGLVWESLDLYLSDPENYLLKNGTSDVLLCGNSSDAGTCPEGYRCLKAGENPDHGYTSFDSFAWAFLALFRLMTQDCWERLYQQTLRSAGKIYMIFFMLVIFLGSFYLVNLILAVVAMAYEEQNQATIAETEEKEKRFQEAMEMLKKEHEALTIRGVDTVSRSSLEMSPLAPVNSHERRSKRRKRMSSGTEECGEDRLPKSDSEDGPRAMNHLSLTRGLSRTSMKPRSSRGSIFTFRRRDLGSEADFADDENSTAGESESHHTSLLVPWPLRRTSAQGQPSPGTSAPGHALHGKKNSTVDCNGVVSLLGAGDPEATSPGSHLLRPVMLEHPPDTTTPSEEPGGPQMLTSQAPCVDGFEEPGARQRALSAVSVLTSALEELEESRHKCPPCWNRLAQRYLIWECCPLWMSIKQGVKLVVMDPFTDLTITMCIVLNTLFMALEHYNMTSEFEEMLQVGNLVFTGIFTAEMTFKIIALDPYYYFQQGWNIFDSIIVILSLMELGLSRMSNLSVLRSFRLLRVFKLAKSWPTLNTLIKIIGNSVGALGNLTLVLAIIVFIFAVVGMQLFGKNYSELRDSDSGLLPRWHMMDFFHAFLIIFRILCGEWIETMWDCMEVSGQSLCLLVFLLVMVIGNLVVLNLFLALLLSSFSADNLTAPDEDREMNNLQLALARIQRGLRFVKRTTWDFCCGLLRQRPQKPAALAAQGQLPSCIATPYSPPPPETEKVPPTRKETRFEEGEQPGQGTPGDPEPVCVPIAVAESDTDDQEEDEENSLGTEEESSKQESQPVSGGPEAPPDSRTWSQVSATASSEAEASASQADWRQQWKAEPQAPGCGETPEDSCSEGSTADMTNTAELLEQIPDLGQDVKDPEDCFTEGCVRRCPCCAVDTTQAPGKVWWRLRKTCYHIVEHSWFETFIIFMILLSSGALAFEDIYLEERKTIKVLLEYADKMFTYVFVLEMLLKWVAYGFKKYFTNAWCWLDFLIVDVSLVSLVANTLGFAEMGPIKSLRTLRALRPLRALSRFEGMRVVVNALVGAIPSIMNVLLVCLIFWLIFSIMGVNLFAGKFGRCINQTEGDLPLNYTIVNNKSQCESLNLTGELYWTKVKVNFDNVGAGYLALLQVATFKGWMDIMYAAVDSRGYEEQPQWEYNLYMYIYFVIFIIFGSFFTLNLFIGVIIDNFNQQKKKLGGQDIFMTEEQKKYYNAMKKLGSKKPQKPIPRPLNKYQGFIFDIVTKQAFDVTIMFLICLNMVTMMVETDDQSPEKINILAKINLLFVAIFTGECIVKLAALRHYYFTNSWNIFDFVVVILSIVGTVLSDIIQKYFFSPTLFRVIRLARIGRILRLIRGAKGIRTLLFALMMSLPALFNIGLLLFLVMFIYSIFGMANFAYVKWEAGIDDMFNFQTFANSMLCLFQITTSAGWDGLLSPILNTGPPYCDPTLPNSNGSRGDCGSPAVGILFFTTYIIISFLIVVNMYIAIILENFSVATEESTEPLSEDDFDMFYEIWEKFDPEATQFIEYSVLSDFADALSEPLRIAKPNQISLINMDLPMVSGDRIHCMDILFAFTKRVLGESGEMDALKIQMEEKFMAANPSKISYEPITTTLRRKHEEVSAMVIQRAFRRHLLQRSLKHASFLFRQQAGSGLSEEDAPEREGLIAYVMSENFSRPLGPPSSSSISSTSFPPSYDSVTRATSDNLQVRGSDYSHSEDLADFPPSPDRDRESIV
Setting [1] is: read-out: Flux NaV1.6 IC50, Trex HEK293 cells, ANG2 dye, arithmetic mean.

The values that follow come from US10246453B2, “Benzenesulfonamide compounds and their use as therapeutic agents” (Xenon Pharmaceuticals Inc., priority 2016, dated 2019).

Molecules are shown by their SMILES. Counter-ions that a name gives are not always drawn. Like-named read-outs stand apart in the source and are kept apart here.

For `C[C@@H]1CN(Cc2ccccc2F)CC[C@@H]1Oc1ccc(S(=O)(=O)Nc2nccs2)cc1Cl` (relative stereo) [Example 10A, 3-chloro-4-((cis-1-(2-fluorobenzyl)-3-methylpiperidin-4-yl)oxy)-N-(thiazol-2-yl)benzenesulfonamide], the IC50 against NaV1.6 was 1.27 µM.
On the same count and under the same terms, in the case of `C[C@@H]1CN(Cc2ccccc2F)CC[C@H]1Oc1ccc(S(=O)(=O)Nc2nccs2)cc1Cl` (relative stereo) [Example 10B, 3-chloro-4-((trans-1-(2-fluorobenzyl)-3-methylpiperidin-4-yl)oxy)-N-(thiazol-2-yl)benzenesulfonamide] it was 1.16 µM.
With `C[C@H]1C[C@@H](Oc2ccc(S(=O)(=O)Nc3nccs3)cc2Cl)CCN1Cc1ccccc1` (relative stereo) [Example 72, 4-((cis-1-benzyl-2-methylpiperidin-4-yl)oxy)-3-chloro-N-(thiazol-2-yl)benzenesulfonamide], the IC50 on NaV1.1 amounted to 6.81 µM; on NaV1.6 (setting [1]) it was 6.07 µM; at NaV1.5, 13.5 µM.
For `C[C@@H]1C[C@@H](Oc2ccc(S(=O)(=O)Nc3nccs3)cc2Cl)CCN1Cc1ccccc1` (relative stereo) [Example 73, 4-((trans-1-benzyl-2-methylpiperidin-4-yl)oxy)-3-chloro-N-(thiazol-2-yl)benzenesulfonamide] the same measures were 5.85 µM, 1.88 µM and 13.1 µM.
For `C[C@@H]1CN(Cc2ccccc2)C[C@@H]1Nc1ccc(S(=O)(=O)Nc2nccs2)cc1Cl` (relative stereo) [Example 75, 4-((cis-1-benzyl-4-methylpyrrolidin-3-yl)amino)-3-chloro-N-(thiazol-2-yl)benzenesulfonamide], the IC50 on NaV1.1 was 4.19 µM; on NaV1.6 (setting [1]), 0.661 µM; at NaV1.5 it was 8.99 µM.
For `CC1(C)CNCCC1Oc1ccc(S(=O)(=O)Nc2ncns2)cc1Cl` (centres unmarked) [Example 1, 3-chloro-4-((3,3-dimethylpiperidin-4-yl)oxy)-N-(1,2,4-thiadiazol-5-yl)benzenesulfonamide 2,2,2-trifluoroacetate] the same measures were over 30 µM, 10.3 µM and over 30 µM.
Take `Cc1cc(C)cc(CN2CCC(Oc3ccc(S(=O)(=O)Nc4ncns4)cc3Cl)C(C)(C)C2)c1` (centres unmarked) [Example 3, 3-chloro-4-((1-(3,5-dimethylbenzyl)-3,3-dimethylpiperidin-4-yl)oxy)-N-(1,2,4-thiadiazol-5-yl)benzenesulfonamide 2,2,2-trifluoroacetate]: the IC50 at NaV1.1 is 20.8 µM; on NaV1.6 (setting [1]), 6.59 µM; at NaV1.5, 6.17 µM.
With `CC1(C)CN(Cc2cc(Cl)cc(Cl)c2)CCC1Oc1ccc(S(=O)(=O)Nc2ncns2)cc1Cl` (centres unmarked) [Example 4, 3-chloro-4-((1-(3,5-dichlorobenzyl)-3,3-dimethylpiperidin-4-yl)oxy)-N-(1,2,4-thiadiazol-5-yl)benzenesulfonamide 2,2,2-trifluoroacetate], the IC50 at NaV1.1 is over 30 µM; at NaV1.6 (setting [1]), over 30 µM; at NaV1.5 it was 11 µM.
As to `O=S(=O)(Nc1nccs1)c1ccc(OC2CCN(Cc3cccc(OC(F)F)c3)CC2)c(Cl)c1` [Example 5, 3-chloro-4-((1-(3-(difluoromethoxy)benzyl)piperidin-4-yl)oxy)-N-(thiazol-2-yl)benzenesulfonamide], the results for the IC50 on NaV1.1, on NaV1.6 (setting [1]) and at NaV1.5 were 6.3 µM, 1.36 µM and 4.37 µM, respectively.
As for `O=S(=O)(Nc1nccs1)c1ccc(OC2CCN(CC3CCCCC3)CC2)c(Cl)c1` [Example 6, 3-chloro-4-((1-(cyclohexylmethyl)piperidin-4-yl)oxy)-N-(thiazol-2-yl)benzenesulfonamide 2,2,2-trifluoroacetate], the IC50 on NaV1.1 was 12.2 µM; at NaV1.6 (setting [1]) it was 7.52 µM; at NaV1.5, over 30 µM.
In the case of `O=S(=O)(Nc1nccs1)c1ccc(OC2CCN(C3CCCCC3)CC2)c(Cl)c1` [Example 7, 3-chloro-4-((1-cyclohexylpiperidin-4-yl)oxy)-N-(thiazol-2-yl)benzenesulfonamide 2,2,2-trifluoroacetate], the values for the half-inhibitory concentration (IC50) against NaV1.1, at NaV1.6 (setting [1]) and on NaV1.5 were over 30 µM, 27.3 µM and over 30 µM, respectively.
In the case of `O=S(=O)(Nc1nccs1)c1ccc(OC2CCN(Cc3ccccc3C(F)(F)F)CC2)c(Cl)c1` [Example 12, 3-chloro-N-(thiazol-2-yl)-4-((1-(2-(trifluoromethyl)benzyl)piperidin-4-yl)oxy)benzenesulfonamide], the values for the IC50 at NaV1.1, on NaV1.6 (setting [1]) and on NaV1.5 were 13.3 µM, 13.3 µM and 6.35 µM, respectively.
As for `O=S(=O)(Nc1nccs1)c1ccc(OC2CCN(Cc3ccccc3Cl)CC2)c(Cl)c1` [Example 13, 3-chloro-4-((1-(2-chlorobenzyl)piperidin-4-yl)oxy)-N-(thiazol-2-yl)benzenesulfonamide], the IC50 against NaV1.1 came out at 6.83 µM; on NaV1.6 (setting [1]), 1.7 µM; at NaV1.5, 5.09 µM.
For `Cc1ccnc(CN2CCC(Oc3ccc(S(=O)(=O)Nc4nccs4)cc3Cl)CC2)c1` [Example 14, 3-chloro-4-((1-((4-methylpyridin-2-yl)methyl)piperidin-4-yl)oxy)-N-(thiazol-2-yl)benzenesulfonamide] the same measures were over 30 µM, 0.878 µM and 10.7 µM.
Turning to `O=S(=O)(Nc1nccs1)c1ccc(O[C@H]2C[C@H]3CC[C@@H](C2)N3Cc2ccccc2)c(Cl)c1` [Example 15, 4-(((1R,3r,5S)-8-benzyl-8-azabicyclo[3.2.1]octan-3-yl)oxy)-3-chloro-N-(thiazol-2-yl)benzenesulfonamide], the IC50 at NaV1.1 was 9.23 µM; at NaV1.6 (setting [1]), 2.57 µM; at NaV1.5 it was 23.9 µM.
For `O=S(=O)(Nc1nccs1)c1cc(Cl)c(O[C@@H]2C[C@H]3CC[C@@H](C2)N3Cc2cccc(Cl)c2)cc1F` [Example 18, 5-chloro-4-(((1R,3s,5S)-8-(3-chlorobenzyl)-8-azabicyclo[3.2.1]octan-3-yl)oxy)-2-fluoro-N-(thiazol-2-yl)benzenesulfonamide 2,2,2-trifluoroacetate] the same measures were over 30 µM, 1.06 µM and over 30 µM.
For `CC1(Oc2ccc(S(=O)(=O)Nc3nccs3)cc2Cl)CCN(Cc2ccccc2)CC1` [Example 19, 4-((1-benzyl-4-methylpiperidin-4-yl)oxy)-3-chloro-N-(thiazol-2-yl)benzenesulfonamide] the same measures were 4.96 µM, 3.17 µM and 4.68 µM.
For `CC1(Oc2ccc(S(=O)(=O)Nc3nccs3)cc2Cl)CCN(Cc2cccc(Cl)c2)CC1` [Example 20, 3-chloro-4-((1-(3-chlorobenzyl)-4-methylpiperidin-4-yl)oxy)-N-(thiazol-2-yl)benzenesulfonamide] the same measures were 5.93 µM, 5.62 µM and 6.1 µM.
As for `CC(c1ccccc1)N1CCC(Oc2ccc(S(=O)(=O)Nc3nccs3)cc2Cl)CC1` (centres unmarked) [Example 52, 3-chloro-4-((1-(1-phenylethyl)piperidin-4-yl)oxy)-N-(thiazol-2-yl)benzenesulfonamide], the figures for the IC50 on NaV1.6 (setting [1]) and at NaV1.5 were 0.305 µM and 14.4 µM, respectively.
In the case of `Cc1cc(S(=O)(=O)Nc2cscn2)c(F)cc1N(C)[C@H]1CCN(Cc2ccccc2O)C1` [Example 113, (S)-2-fluoro-4-((1-(2-hydroxybenzyl)-pyrrolidin-3-yl)(methyl)amino)-5-methyl-N-(thiazol-4-yl)benzenesulfonamide], the IC50 against NaV1.1 was found to be 17.9 µM; at NaV1.6 (setting [1]), 0.258 µM.
On to `COc1cccc(CN2CC[C@H](N(C)c3cc(F)c(S(=O)(=O)Nc4cscn4)cc3Cl)C2)c1` [Example 219, (S)-5-chloro-2-fluoro-4-((1-(3-methoxybenzyl)pyrrolidin-3-yl)(methyl)amino)-N-(thiazol-4-yl)benzenesulfonamide], for which the IC50 at NaV1.1 stood at 7.53 µM; at NaV1.6 (setting [1]) it was 3.2 µM.
As for `O=S(=O)(Nc1cscn1)c1cc(Cl)c(OC2CCN(Cc3ccccc3)CC2)cc1F` [Example 238, 4-((1-benzylpiperidin-4-yl)oxy)-5-chloro-2-fluoro-N-(thiazol-4-yl)benzenesulfonamide 2,2,2-trifluoroacetate], the half-maximal inhibitory concentration (IC50) against NaV1.1 was determined as 27.8 µM; on NaV1.6 (setting [1]), 2.1 µM.
Consider `O=S(=O)(Nc1cscn1)c1ccc(O[C@@H]2C[C@H]3CC[C@@H](C2)N3Cc2cccc(C(F)F)c2)c(Cl)c1` [Example 256, 3-chloro-4-(((1R,3s,5S)-8-(3-(difluoromethyl)benzyl)-8-azabicyclo[3.2.1]octan-3-yl)oxy)-N-(thiazol-4-yl)benzenesulfonamide], for which the IC50 at NaV1.5 came to 6.72 µM.
`Cc1cc(S(=O)(=O)Nc2cscn2)c(F)cc1N(C)[C@@H]1CCN(Cc2ccccc2)C1` [Example 272, (R)-4-((1-benzylpyrrolidin-3-yl)(methyl)amino)-2-fluoro-5-methyl-N-(thiazol-4-yl)benzenesulfonamide]: the IC50 at NaV1.6 (setting [1]) stood at 3.77 µM.
Turning to `Cc1cc(S(=O)(=O)Nc2cscn2)ccc1N(C)[C@H]1CCN(Cc2ccccc2)C1` [Example 284, (S)-4-((1-benzylpyrrolidin-3-yl)(methyl)amino)-3-methyl-N-(thiazol-4-yl)benzenesulfonamide 2,2,2-trifluoroacetate], the figures for the IC50 against NaV1.1 and on NaV1.6 (setting [1]) were 10.5 µM and 0.718 µM, respectively.
For `C[C@H](c1ccccc1)N1CCC(Oc2ccc(S(=O)(=O)Nc3ccon3)cc2Cl)CC1` [Example 305, (R)-3-chloro-N-(isoxazol-3-yl)-4-((1-(1-phenylethyl)piperidin-4-yl)oxy)benzenesulfonamide formate], on NaV1.5, the IC50 is over 30 µM.
On to `Cc1cc(S(=O)(=O)Nc2cscn2)c(F)cc1N(C)[C@H]1CCN(Cc2cccc(F)c2)C1` [compound 157, (S)-2-fluoro-4-((1-(3-fluorobenzyl)pyrrolidin-3-yl)(methyl)amino)-5-methyl-N-(thiazol-4-yl)benzenesulfonamide], for which the IC50 at NaV1.6 (setting [1]) is 0.211 µM; on NaV1.5, 18.6 µM.
